Measurements as given in patent publication US8580789B2, “Treating glaucoma” (The Cleveland Clinic Foundation, priority 2007, dated 2013).

Key:
peripapillary sclera = test: Surface wave velocity (stiffness) of the peripapillary sclera of whole globes, Sonic Eye elastometer; parameters: species or system porcine; details: for Mean PPS Stiffness, After Glutaraldehyde Crosslinking: Example 2, GTA annular sponge on PS only ~30 min; for Stiffness of Peripapillary Sclera, Post-crosslinking Mean ± SD: 4% GTA on PS only 30 min
Description: (§1) Surface wave velocity (SWV) is a measure of tissue stiffness, and is performed by detecting the velocity of an ultrasonic wave between 2 points (Sonic Eye, Priavision, Menlo Park, Calif.) (Dupps W J, et al., J Refract Surg; 23: 66-75 (2007)). 19 porcine eyes were divided into 2 groups. In group 1 (6 eyes), the SWV across the exposed optic nerve/lamina cribrosa complex (ON/LCC) was initially measured at the eyes' physiologic IOP and at 100 mmHg. The porcine globes were cannulated with IV tubing to facilitate the change in IOP. In group 2 (13 eyes), the pre-treatment SWV was measured across the same region and atop the peri-papillary sclera, after which both regions were treated with riboflavin 1%, Q 5 min×6, and UVA irradiation (˜365 nm at 3 mW/cm^2) for 30 min per eye. The SWV was then re-measured in each eye at the pre-treatment IOP and at 100 mmHg.
(§2) An annular sponge soaked in GTA was exposed to the peripapillary sclera for ˜30 minutes, and not the ON/LCC. Measurements were repeated as above, but also along each quadrant of peripapillary sclera to ensure uniformity and symmetry of crosslinking around the ON/LCC. The results are summarized as follows:
(§3) Eighteen porcine globes were divided evenly into 3 groups. The optic nerves were transected to expose the ON/LC, and each globe was infused through an in-line pressure transducer for direct IOP control. Surface wave velocity, a non-destructive measure of tissue stiffness, was measured across the ON/LC and PS before and after collagen crosslinking at IOP of 10 and 30 mmHg (groups 1 and 2) and at each globe's preinflation IOP and 80 mmHg (group 3). In group 3, papillary strain was measured by analyzing the displacement of fiducial marks immediately adjacent to the ON/LC using digital photography.
(§4) Surface wave velocity (SWV) is a measure of tissue stiffness that has been used in dermatologic applications to measure age-related changes (Potts R O, et al., J Invest Dermatol.; 82(1):97-100 (1984); Potts R O, et al., J Biomech.; 16(6):365-372 (1983); Davis B R, et al., Exp Gerontol; 24(3):201-210 (1989)), softening effects of tissue hydration and skin creams (Vexler A, et al., J Invest Dermatol; 113(5):732-739 (1999)), and sclerosing effects of radiation on breast skin (Gorodetsky R, et al., Int J Radiat Oncol Biol Phys.; 45(4):893-900 (1999)). When acoustic waves in the 0.5 to 30 kHz frequency range are used, propagation speed in skin is related to the density and stiffness of the tissue (Pereira J M, et al., J Biomech.; 23(8):745-751 (1990)). A prototype handheld ocular surface elastometer (Sonic Eye, Priavision, Menlo Park, Calif.) with an operating frequency within this range (4 kHz) and a fixed 4.5 mm wave propagation distance has been described in detail elsewhere (Dupps W J Jr, et al., J Refract Surg.; 23(1):66-75 (2007)). The Sonic Eye was used in this study as a non-destructive means of measuring local in situ tissue stiffness across and around the optic nerve head.
Eighteen porcine eyes were obtained from a local abattoir (Heffelfingers Meats, Inc., Jeromesville, Ohio) and were used within 24 hours postmortem. The optic nerves were dissected under microscopic visualization to expose the ON/LC (FIG. 1). […] Replicate SWV measurements were obtained at a rate of 1 per second with a triggering foot pedal to produce at least 5 measurements that were subsequently averaged for each region of interest. A PC software interface converted the time-of-flight data to velocity in meters per second (m/s), and the velocity data were exported to Excel (v. 11, SP2; Microsoft Corp, Redmond, Wash.) and Minitab (v. 14.20; Minitab Inc, State College, Pa.) for statistical analysis.
(§5) Three experimental groups of 6 eyes each were defined. In group 1, SWV across the optic nerve/lamina cribrosa complex and peripapillary scleral regions of interest were measured at 10 and 30 mmHg to represent a physiological range of pressures. […]

[1] = tested on: optic nerve/lamina cribrosa complex; test: Surface wave velocity (stiffness) across the optic nerve/lamina cribrosa complex of whole globes, Sonic Eye elastometer; parameters: species or system porcine; details: for Mean ON/LCC Stiffness, After Glutaraldehyde Crosslinking: Example 2, GTA annular sponge on PS only ~30 min
Description: as §1, §2, §3, §4
Eighteen porcine eyes were obtained from a local abattoir (Heffelfingers Meats, Inc., Jeromesville, Ohio) and were used within 24 hours postmortem. The optic nerves were dissected under microscopic visualization to expose the ON/LC (FIG. 1). […]
as §5

O=CCCCC=O [GTA, glutaraldehyde]
Mean PPS Stiffness, After Glutaraldehyde Crosslinking (peripapillary sclera; mean IOP 3 mmHg): 83.6 m/s | Mean PPS Stiffness, After Glutaraldehyde Crosslinking (peripapillary sclera; mean IOP 80 mmHg): 97.9 m/s | Stiffness of Peripapillary Sclera, Post-crosslinking Mean ± SD (peripapillary sclera; Example 3 Group 2, High IOP 30 mmHg): 197.0±35.6 m/s | Stiffness of Peripapillary Sclera, Post-crosslinking Mean ± SD (peripapillary sclera; Example 3 Group 2, Low IOP 10 mmHg): 148.4±43.0 m/s | Stiffness of Peripapillary Sclera, Post-crosslinking Mean ± SD (peripapillary sclera; Example 3 Group 3, High IOP 80 mmHg): 190.2±45.8 m/s | Stiffness of Peripapillary Sclera, Post-crosslinking Mean ± SD (peripapillary sclera; Example 3 Group 3, Low IOP = pre-inflation 2-4 mmHg): 149.9±35.7 m/s | Mean ON/LCC Stiffness, After Glutaraldehyde Crosslinking ([1]; mean IOP 3 mmHg): 29.5 m/s | Mean ON/LCC Stiffness, After Glutaraldehyde Crosslinking ([1]; mean IOP 80 mmHg): 29.3 m/s | Stiffness of Optic Nerve/Lamina Cribrosa Complex, Post-crosslinking Mean ± SD ([1]; Example 3 Group 3, 4% GTA on PS only 30 min, Low IOP = pre-inflation 2-4 mmHg): 29.5±2.9 m/s
